{"source": "paper PMC10630888", "about": "“Nuclear ERK1/2 signaling potentiation enhances neuroprotection and cognition via Importinα1/KPNA2” (EMBO Molecular Medicine, 2023)", "key": {"p-ERK in dorsal striatum": {"tested_on": "p-ERK in dorsal striatum", "test": "In vivo dose response of striatal pERK", "set-up": "species or system mouse", "settings": "1 h after administration, individual mice", "protocol": "For the dose response study, 2‐month‐old CD1 male mice were injected with different doses of RB5 (1, 2.5, 5, 10, and 20 mg/kg, i.p.), whereas the control group was injected with 20 mg/kg (i.p.) of SCR peptide. Mice were perfused 1 h later with 4% PFA. For the time course study, mice were injected i.p. with 20 mg/kg of RB5 and perfused at different time points with 4% PFA (1, 3, 6, and 12 h). The control group was injected i.p. with 20 mg/kg of SCR. Brains were postfixed in 4% PFA for 24 h and cryoprotected overnight in sucrose 30% before immunohistochemistry against phospho‐ERK1/2.\nImmunohistochemistry was performed as described in Papale et al ([2016]). […]\nFor in vivo immunohistochemistry experiments, images were acquired from the dorsal striatum using a Leica DM IRB microscope under a 20× objective. The number of p‐ERK, p‐MSK‐1, p‐ELK, p‐MEK‐1, p‐VG K+, c‐Fos, and DARPP‐32 positive cells was counted in 2–3 consecutive sections per mouse, bilaterally and averaged across the sections using the ImageJ software by a blind investigator to the condition. Estimation of nigral cell loss was assessed by quantifying the number of TH‐immunopositive neurons of the SNc in 360 μm‐spaced sections for each animal."}, "[1]": {"biological_target": "T1, ERK1/ERK2-KPNA5 interaction (Homo sapiens, UniProt O15131)", "T1 construct": "host or cells: HEK293", "T1 sequence (O15131 whole entry)": "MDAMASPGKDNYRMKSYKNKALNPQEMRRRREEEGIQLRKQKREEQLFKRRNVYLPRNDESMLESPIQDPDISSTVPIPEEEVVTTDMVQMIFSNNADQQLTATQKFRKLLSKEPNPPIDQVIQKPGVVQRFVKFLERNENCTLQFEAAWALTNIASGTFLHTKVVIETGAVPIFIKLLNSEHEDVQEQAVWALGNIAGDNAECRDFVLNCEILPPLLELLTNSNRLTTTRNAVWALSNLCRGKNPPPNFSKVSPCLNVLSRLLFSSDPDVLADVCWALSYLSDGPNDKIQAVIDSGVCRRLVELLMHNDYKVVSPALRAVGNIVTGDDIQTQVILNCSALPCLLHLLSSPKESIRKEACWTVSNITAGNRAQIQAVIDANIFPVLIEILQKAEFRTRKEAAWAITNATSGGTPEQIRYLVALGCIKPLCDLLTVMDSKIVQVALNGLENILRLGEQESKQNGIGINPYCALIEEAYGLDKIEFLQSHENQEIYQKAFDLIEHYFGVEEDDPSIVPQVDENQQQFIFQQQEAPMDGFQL", "test": "Proximity ligation assay, ERK1 or ERK2 with KPNA5 in HEK293 cells", "assay_type": "binding", "settings": "HEK293 cells pretreated with RB5 50 μM for 1 h", "protocol": "1.5 × 10^6 HEK293 cells were seeded onto coverslips in 60 mm dishes. 24 h later, transfection was carried out using calcium phosphate method. 0.5 μg of pCMVTNT‐T7‐KPNA1 (Addgene, #26677), 0.5 μg of pCMVTNT‐T7‐KPNA2 (Addgene, #26678), 0.5 μg of pCMVTNT‐T7‐KPNA3 (Addgene, #26679), 0.5 μg of pCMVTNT‐T7‐KPNA4 (Addgene, #26680), 0.5 μg of pCMVTNT‐T7‐KPNA5 (Addgene, #26681), 1.5 μg of pcDNA3.1+/C‐(K)‐DYK‐KPNA6 (Genscript, #OHu29951D), 0.5 μg of pCMVTNT‐T7‐KPNA7 (Addgene, #26683), 5 μg of pcDNA3.1 +/C‐(K)‐DYK‐IPO7 (Genscript, #OHu11630), 0.5 μg pCMV5‐3HA‐RanBP5 (MRC PPU, University of Dundee, #DU7262), 0.5 μg pCMV5‐3HA‐ KPNB1 (MRC PPU, University of Dundee, #DU5332) were mixed with one of the following plasmids: 0.01 μg of 277.pCCLsin.PPT.hPGK.GFP.PRE, 0.25 μg of 277.pCCLsin.PPT.hPGK.ERK1‐GFP.PRE or 0.25 μg of 277.pCCLsin.PPT.hPGK.ERK2‐GFP.PRE. After approximately 16 h, cell culture medium was replaced with fresh medium. On the following day, cells were washed three times in PBS and fixed in 4% PFA for 15 min. […]\nThe proximity ligation assay was carried out following the manufacturer's instructions. […] The number of GFP‐positive cells, DAPI‐stained cells, and red dots was counted manually using Fiji‐ImageJ software."}}, "data": [{"sequence": "GRKKRRQRRRPPQGGGGGEPRRTEGVGPGVPGEVEMVKGQPFDV [RB5, six D-amino acids, acetylated N-terminus]", "values": [{"measurement": "p-ERK-positive cells in dorsal striatum", "setting": "p-ERK in dorsal striatum; 10 mg/kg i.p.", "result": "significant striatal ERK activation"}, {"measurement": "p-ERK-positive cells in dorsal striatum", "setting": "p-ERK in dorsal striatum; 20 mg/kg i.p.", "result": "significant striatal ERK activation"}, {"measurement": "ERK1 or ERK2 binding to KPNA5 (PLA)", "setting": "[1]", "result": "unaffected"}]}]}
